Data as given in the supplement of paper PMC10307832.

How the values were obtained:
Experiment in all cases: relative viability (nuclei count vs DMSO), 5 days (fraction); higher = more cells survive
Olaparib + Linsitinib = compound: O=C(c1cc(Cc2n[nH]c(=O)c3ccccc23)ccc1F)N1CCN(C(=O)C2CC2)CC1 [Olaparib] + C[C@]1(O)C[C@@H](c2nc(-c3ccc4ccc(-c5ccccc5)nc4c3)c3c(N)nccn32)C1 [Linsitinib] (partner 1 µM)
Summary of the method: (§1)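 The day after seeding in 1536-well plates, lung cancer cell lines were treated by pin tool with a single drug, or with a fixed anchor-drug dose together with five library-drug doses (not always all listed) in √10 steps. After 5 days, a combined fix-and-stain solution (final 0.05% Triton X-100, 1% formaldehyde, 1 ug/ml Hoechst) was added. Nuclei counted on 4× images gave relative viability as treated counts over vehicle counts, reported as the median of duplicate plates.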

Crizotinib + OSI-027 = compound: C[C@@H](Oc1cc(-c2cnn(C3CCNCC3)c2)cnc1N)c1c(Cl)ccc(F)c1Cl [Crizotinib] + COc1cccc2cc(-c3nc([C@H]4CC[C@H](C(=O)O)CC4)n4ncnc(N)c34)[nH]c12 [OSI-027] (partner 0.5 µM)
Summary of the method: as §1

Crizotinib + Alpelisib = compound: C[C@@H](Oc1cc(-c2cnn(C3CCNCC3)c2)cnc1N)c1c(Cl)ccc(F)c1Cl [Crizotinib] + Cc1nc(NC(=O)N2CCC[C@H]2C(N)=O)sc1-c1ccnc(C(C)(C)C(F)(F)F)c1 [Alpelisib] (partner 2 µM)
Summary of the method: as §1

Carfilzomib + Pemetrexed = compound: CC(C)C[C@H](NC(=O)[C@H](CCc1ccccc1)NC(=O)CN1CCOCC1)C(=O)N[C@@H](Cc1ccccc1)C(=O)N[C@@H](CC(C)C)C(=O)[C@@]1(C)CO1 [Carfilzomib] + Nc1nc2[nH]cc(CCc3ccc(C(=O)N[C@@H](CCC(=O)O)C(=O)O)cc3)c2c(=O)[nH]1 [Pemetrexed] (partner 0.2 µM)
Summary of the method: as §1

Cell Line	relative viability (Olaparib + Linsitinib; first compound 0.08 µM)	relative viability (Olaparib + Linsitinib; first compound 0.253 µM)	relative viability (Olaparib + Linsitinib; first compound 2.53 µM)	relative viability (Olaparib + Linsitinib; first compound 8 µM)	relative viability (Crizotinib + OSI-027; first compound 0.01 µM)	relative viability (Crizotinib + OSI-027; first compound 0.03162 µM)	relative viability (Crizotinib + OSI-027; first compound 0.1 µM)	relative viability (Crizotinib + OSI-027; first compound 0.3162 µM)	relative viability (Crizotinib + OSI-027; first compound 1 µM)	relative viability (Crizotinib + Alpelisib; first compound 0.01 µM)	relative viability (Crizotinib + Alpelisib; first compound 0.03162 µM)	relative viability (Crizotinib + Alpelisib; first compound 0.1 µM)	relative viability (Crizotinib + Alpelisib; first compound 0.3162 µM)	relative viability (Crizotinib + Alpelisib; first compound 1 µM)	relative viability (Carfilzomib + Pemetrexed; first compound 0.001 µM)	relative viability (Carfilzomib + Pemetrexed; first compound 0.003162 µM)	relative viability (Carfilzomib + Pemetrexed; first compound 0.01 µM)	relative viability (Carfilzomib + Pemetrexed; first compound 0.03162 µM)	relative viability (Carfilzomib + Pemetrexed; first compound 0.1 µM)
NCI-H596	1.04	0.856	0.923	0.744	0.715	0.857	0.693	0.564	0.67	0.396	0.528	0.509	0.564	0.481	0.486	0.519	0.421	0.329	0.244
NCI-H2347	1.03	0.879	0.823	0.816	0.375	0.324	0.417	0.386	0.414	1.04	1.03	1.03	0.978	0.996	0.456	0.44	0.423	0.403	0.272
HCC-78	0.732	0.456	0.533	0.473		0.365	0.29	0.307	0.34	0.278	0.292	0.299	0.279	0.223	0.876	0.868	0.904	0.967	0.9
COR-L23	1.09	0.852	0.716	0.432	0.742	0.73	0.674	0.76	0.723	0.81	0.77	0.659	0.758	0.665	0.2	0.187	0.185	0.123	0.0834
NCI-H322M	0.819	0.879	0.979	0.84	0.519	0.521	0.478	0.535	0.502	0.791		0.773	0.916	0.789	0.592	0.637	0.64	0.657	0.421
NCI-H2085	0.982	0.868	0.819	0.677	0.552	0.985	0.66		0.748	0.954	1.02		1.05	0.954	0.784	0.941	0.968	0.54	0.301
NCI-H2023	0.754	0.608	0.535	0.469	0.354	0.438	0.359	0.297	0.329	0.523	0.611	0.637	0.503	0.499	0.237	0.247	0.227	0.141	0.0695
LU99A	0.587	0.515	0.414	0.333	0.304	0.319	0.294	0.259	0.275	0.549	0.501	0.508	0.442	0.558	0.191	0.163	0.18	0.214	0.188
NCI-H2228	0.686	0.629	0.698	0.434	0.607	0.563	0.54	0.272	0.164	0.666	0.799	0.769	0.451	0.288	0.316	0.364	0.361	0.0862	0.143
NCI-H1395	1.14	0.896	0.67	0.734	0.601	0.631	0.623	0.496	0.563	0.996	0.928	1.09	1.11	1.26		0.873	0.756	0.33	0.287
HCC-15	0.927	0.828	0.836	0.768	0.626	0.754	0.633		0.568	0.846	0.938	0.906	0.848	0.956	0.242	0.218	0.238	0.224	0.13
RERF-LC-KJ	0.939	0.903	0.948	0.902	0.518	0.619	0.521	0.542	0.612	0.702	0.847	0.82	0.816		0.444	0.51	0.489	0.368	0.248
NCI-H647	1.4	1.05	0.919	0.779	0.736	0.516	0.641	0.531	0.663	1.08	1.16	1.02	0.933	1.01	0.193	0.179	0.126	0.0407	0.0343
201T	1.04	1.01	1.04	1.01	0.635	0.744	0.668	0.77	0.698			1.03	1.04	1.06	0.33	0.33	0.337	0.351	0.312
HCC-366	0.67	0.479	0.447	0.303	0.885	0.931	0.889		0.901	0.547	0.485	0.382		0.343	0.158	0.149	0.2	0.17	0.039
HOP-62	1.11	1.16	0.968	0.47	0.816	0.84	0.822	0.765		0.93	1	0.731	0.964	1.08	0.404	0.304	0.417	0.0823	0.063
NCI-H1734	0.998	0.809	0.799	0.579	0.592	0.606	0.473		0.555	0.659	0.646	0.661		0.633	0.398	0.436	0.432	0.366	0.19
